This is an account of results in PubChem BioAssay (NCI).

Structures are written as SMILES.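 1) Cells in 96-well plates. 2) Compound, 48 h, 5 concentrations. 3) Linear interpolation between surrounding doses. 4) Unreached endpoint = highest concentration. TGI marks complete inhibition of growth.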

Some test systems named below: SF-539 CNS; RPMI-8226 leukemia; OVCAR-5 ovarian; NCI-H522 lung; HOP-92 NSCLC; HCT-116 colon; OVCAR-4 ovarian; SNB-19 CNS; A549 NSCLC; NCI-H460 lung; SW-620 colon; SN12C renal; A498 renal; SNB-75 CNS; SK-MEL-2 melanoma; OVCAR-3 ovarian; HT29 colon; NCI-H23 lung; SR leukemia.
What all share (assay): NCI-60 cell line screen, 48 h

Turning to `OCC1OC(c2cccc3cc(O)c(O)cc23)CC1O` (stereo unspecified), the TGI with SF-539 CNS, in the assay with RPMI-8226 leukemia, with OVCAR-5 ovarian, in the assay on NCI-H522 lung, in the assay with HOP-92 NSCLC and in the assay with HCT-116 colon was above 100 µM each time. In addition, the TGI with OVCAR-4 ovarian, in the assay on SNB-19 CNS, in the assay with A549 NSCLC, in the assay with NCI-H460 lung, in the assay on SW-620 colon and with SN12C renal was above 100 µM in each case. In addition, the TGI in the assay with A498 renal, with SNB-75 CNS, with SK-MEL-2 melanoma, with OVCAR-3 ovarian and with HT29 colon was above 100 µM in each case.

In the case of `CNC(C#N)c1ccc(OC)cc1` (stereo unspecified), the TGI in the assay with SF-539 CNS, with OVCAR-5 ovarian, in the assay on NCI-H522 lung, in the assay with HOP-92 NSCLC, in the assay with HCT-116 colon and in the assay on OVCAR-4 ovarian was above 100 µM in each case. In addition, the TGI with SNB-19 CNS, in the assay on A549 NSCLC, in the assay on NCI-H460 lung, in the assay with SW-620 colon, with SN12C renal and with A498 renal was above 100 µM throughout. In addition, the TGI with NCI-H23 lung, in the assay with SK-MEL-2 melanoma, in the assay on OVCAR-3 ovarian and in the assay on HT29 colon was above 100 µM in each case.

With `Nc1ncnc2c1ccn2C/C=C\CO`, the TGI in the assay with SF-539 CNS, with RPMI-8226 leukemia, with OVCAR-5 ovarian, with NCI-H522 lung, in the assay on HOP-92 NSCLC and in the assay on HCT-116 colon was above 100 µM in each case. Further, the TGI in the assay on OVCAR-4 ovarian, in the assay on SNB-19 CNS, in the assay with A549 NSCLC, in the assay on NCI-H460 lung, in the assay on SW-620 colon and in the assay on SN12C renal was above 100 µM in each case. In addition, the TGI in the assay with A498 renal, in the assay on SNB-75 CNS, with NCI-H23 lung, in the assay on SK-MEL-2 melanoma, in the assay on OVCAR-3 ovarian and in the assay with HT29 colon was above 100 µM each time.

For the compound `COc1ccc(C2C(Cl)C(=O)N2n2cnc3ccccc3c2=O)cc1` (stereo unspecified), the TGI in the assay on SR leukemia, in the assay with RPMI-8226 leukemia, in the assay on OVCAR-5 ovarian, with NCI-H522 lung, in the assay with HCT-116 colon and in the assay with OVCAR-4 ovarian was above 100 µM each time. Also, the TGI was above 100 µM in the assay on SNB-19 CNS; above 100 µM in the assay on A549 NSCLC; above 100 µM in the assay with NCI-H460 lung; above 100 µM in the assay on SW-620 colon; above 100 µM in the assay on SN12C renal; 86.2 µM with SNB-75 CNS. For the same compound, the TGI with NCI-H23 lung, with SK-MEL-2 melanoma, in the assay with OVCAR-3 ovarian and in the assay with HT29 colon was above 100 µM throughout.

As for `CC(C)(Br)C(Br)CCC1(C2CO2)CO1` (stereo unspecified), the TGI in the assay with SF-539 CNS, in the assay with RPMI-8226 leukemia, with NCI-H522 lung, in the assay with HOP-92 NSCLC, in the assay with HCT-116 colon and in the assay on OVCAR-4 ovarian was above 5 µM throughout. The TGI with SNB-19 CNS, with A549 NSCLC, with SW-620 colon, in the assay on SN12C renal, with A498 renal and in the assay with SNB-75 CNS was above 5 µM throughout. Moreover, the TGI in the assay on NCI-H23 lung, in the assay on OVCAR-3 ovarian and in the assay with HT29 colon was above 5 µM in each case.

In the case of `CCCC(=O)n1[nH]c(=O)n(-c2ccc(Cl)cc2)c1=O`, the TGI in the assay with SR leukemia, in the assay with RPMI-8226 leukemia, in the assay with OVCAR-5 ovarian, with HCT-116 colon, in the assay on OVCAR-4 ovarian and in the assay with SNB-19 CNS was above 100 µM throughout. The TGI in the assay on A549 NSCLC, in the assay on NCI-H460 lung, in the assay on SW-620 colon, with SN12C renal, in the assay on SNB-75 CNS and in the assay on NCI-H23 lung was above 100 µM each time. Further, the TGI in the assay on SK-MEL-2 melanoma, with OVCAR-3 ovarian and in the assay with HT29 colon was above 100 µM throughout.

As to `Cc1cc(C)n(C(=C(C(Cl)=C(Cl)Cl)[N+](=O)[O-])n2nc(C)cc2C)n1`, the TGI in the assay on SF-539 CNS was found to be 16.4 µM; in the assay with OVCAR-5 ovarian it was 22.8 µM; in the assay on NCI-H522 lung, 6.74 µM; with HOP-92 NSCLC, 6.78 µM; in the assay on HCT-116 colon, 14.5 µM; in the assay on OVCAR-4 ovarian, 7.47 µM. Further, the TGI with SNB-19 CNS was found to be 16.2 µM; in the assay on A549 NSCLC, 11.4 µM; with NCI-H460 lung it was 12.7 µM; in the assay on SW-620 colon, 18.2 µM; with SN12C renal, 15.9 µM; in the assay with A498 renal, 8.59 µM. Moreover, the TGI stood at 18.1 µM in the assay on SNB-75 CNS; 12.8 µM with NCI-H23 lung; 4.18 µM in the assay on SK-MEL-2 melanoma; 10.4 µM with OVCAR-3 ovarian; 11.5 µM in the assay with HT29 colon.

Consider `COc1cccc2c1OC(c1ccc(Cl)cc1)C([N+](=O)[O-])=C2` (stereo unspecified), for which the TGI with SR leukemia was above 100 µM; in the assay on OVCAR-5 ovarian, 7.84 µM; in the assay with NCI-H522 lung, 3.23 µM; in the assay with HCT-116 colon it was 2.67 µM; with OVCAR-4 ovarian, 6.2 µM; in the assay on SNB-19 CNS, 17 µM. Besides, the TGI in the assay on A549 NSCLC is 22.5 µM; with NCI-H460 lung it was 4.92 µM; with SN12C renal, 8.41 µM; with NCI-H23 lung it was 21.2 µM; in the assay with OVCAR-3 ovarian, 7.08 µM; with HT29 colon, 3.21 µM.
